Measured values from article PMC9226124, “Macrocycle-stabilization of its interaction with 14-3-3 increases plasma membrane localization and activity of CFTR” (Nature Communications, 2022).
Values joined by “and” are separate entries in the source; they are usually repeats but may differ in a detail not shown here. Equal values may be shown once.

Legend:
[1] = target: T1, 3HA-tagged F508del-CFTR in BHK cells (Homo sapiens, UniProt P13569, DEL508-508); test: CFTR trafficking assay (surface expression); assay type: cell-based, hamster; settings: for F508del-CFTR surface expression signal (Fig5a): individual replicates
T1 construct: expressed in transfected cells; host or cells: baby hamster kidney (BHK) cells (Carlile et al. 2007)
In short: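 BHK cells expressing 3HA-tagged F508del-CFTR treated 24 h with 10 μM compound (1% DMSO final), fixed, stained with anti-HA plus FITC-conjugated anti-mouse IgG. Fluorescence (488/510 nm) background-subtracted and normalized to DMSO control and wt-CFTR-expressing cells.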

[2] = target: T2, FITC-labeled CFTRpS753pS768 peptide (no 14-3-3) (Homo sapiens, UniProt P13569); test: Dose-response FP control assay in the absence of 14-3-3; assay type: binding; settings: for FP signal: No 14-3-3; for Polarization in the absence of 14-3-3, background subtracted: replicates
T2 construct: made in house; host or cells: synthetic peptide
In short: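 Control run without 14-3-3: FITC-CFTR pS753/pS768 peptide (100 nM or 10 nM) with compound titrated in twofold dilutions in 10 mM HEPES pH 7.4, 150 mM NaCl, 0.1% Tween20, 1 mg/mL BSA. Fluorescence polarization read at ex 485/em 535 nm, background subtracted, n = 3. Curves fitted by four-parameter log(agonist) vs. response.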

T2 sequence (P13569 747-774 limits assumed): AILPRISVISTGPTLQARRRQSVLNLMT
T1 sequence (P13569 with tags, fused parts or gaps DEL508-508): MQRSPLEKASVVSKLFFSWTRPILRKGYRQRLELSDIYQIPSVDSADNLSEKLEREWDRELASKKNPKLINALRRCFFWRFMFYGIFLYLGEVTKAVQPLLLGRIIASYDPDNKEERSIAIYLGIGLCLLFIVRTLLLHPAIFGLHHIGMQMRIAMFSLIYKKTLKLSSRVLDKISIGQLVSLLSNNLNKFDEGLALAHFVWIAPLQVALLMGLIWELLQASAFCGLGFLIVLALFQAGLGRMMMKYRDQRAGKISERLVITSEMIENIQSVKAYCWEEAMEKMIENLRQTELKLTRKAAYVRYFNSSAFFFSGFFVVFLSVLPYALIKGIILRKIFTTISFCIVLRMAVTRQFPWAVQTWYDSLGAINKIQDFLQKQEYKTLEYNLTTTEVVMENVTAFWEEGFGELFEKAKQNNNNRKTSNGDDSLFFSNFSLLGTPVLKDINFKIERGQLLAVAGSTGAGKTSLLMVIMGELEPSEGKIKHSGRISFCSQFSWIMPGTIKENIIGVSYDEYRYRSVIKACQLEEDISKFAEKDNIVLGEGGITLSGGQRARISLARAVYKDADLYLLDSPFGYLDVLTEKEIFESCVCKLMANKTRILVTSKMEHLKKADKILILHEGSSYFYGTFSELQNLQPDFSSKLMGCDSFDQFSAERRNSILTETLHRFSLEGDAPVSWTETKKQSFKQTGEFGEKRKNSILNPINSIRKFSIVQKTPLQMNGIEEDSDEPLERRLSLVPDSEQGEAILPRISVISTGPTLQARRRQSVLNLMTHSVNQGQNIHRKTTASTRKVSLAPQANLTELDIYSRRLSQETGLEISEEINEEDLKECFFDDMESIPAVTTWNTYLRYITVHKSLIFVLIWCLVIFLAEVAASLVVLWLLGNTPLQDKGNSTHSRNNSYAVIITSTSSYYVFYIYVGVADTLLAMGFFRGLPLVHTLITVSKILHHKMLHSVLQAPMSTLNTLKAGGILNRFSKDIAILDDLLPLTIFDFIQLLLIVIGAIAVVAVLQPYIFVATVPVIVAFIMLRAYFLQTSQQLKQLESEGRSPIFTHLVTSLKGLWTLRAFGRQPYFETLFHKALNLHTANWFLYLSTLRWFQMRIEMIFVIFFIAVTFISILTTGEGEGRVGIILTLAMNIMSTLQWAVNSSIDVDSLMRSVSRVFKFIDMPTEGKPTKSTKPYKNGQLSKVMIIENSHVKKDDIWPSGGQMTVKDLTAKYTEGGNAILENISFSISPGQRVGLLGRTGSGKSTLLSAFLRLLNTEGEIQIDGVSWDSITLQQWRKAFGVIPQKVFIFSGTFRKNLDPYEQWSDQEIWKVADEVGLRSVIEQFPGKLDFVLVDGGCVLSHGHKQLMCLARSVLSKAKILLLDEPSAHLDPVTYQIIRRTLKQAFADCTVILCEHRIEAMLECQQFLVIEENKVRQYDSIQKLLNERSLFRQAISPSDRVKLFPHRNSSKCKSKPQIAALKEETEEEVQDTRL

With `C=CC(C)(C)OC[C@H]1O[C@H](O[C@@H]2C3=C([C@H](C)COC(C)=O)C[C@H](O)[C@]3(C)/C=C3/[C@@H](COC)CC[C@H]3[C@@H](C)[C@H]2O)[C@H](O)[C@@H](OC(C)=O)[C@@H]1O` [FC-A, fusicoccin A, reference compound] the “F508del-CFTR surface expression signal (Fig5a)” value [1] was 1016.54 and 1064.51 and 1045.89, the FP signal ([2]; compound 476.8 pM) was 1 and the FP signal ([2]; compound 953.7 pM) was 5. For the same compound, the FP signal ([2]; compound 1.90735e-9 M) was 0, the FP signal ([2]; compound 3.8147e-9 M) was 3 and the FP signal ([2]; compound 7.6294e-9 M) was 3. For the same compound, the FP signal ([2]; compound 1.52588e-8 M) was 2, the FP signal ([2]; compound 3.05176e-8 M) was 2 and the FP signal ([2]; compound 6.10352e-8 M) was 1. The FP signal ([2]; compound 1.2207e-7 M) was 1, the FP signal ([2]; compound 2.44141e-7 M) was 2 and the FP signal ([2]; compound 4.88281e-7 M) was 4. For the same compound, the FP signal ([2]; compound 9.76563e-7 M) was 5, the FP signal ([2]; compound 1.95313e-6 M) was 6 and the FP signal ([2]; compound 3.90625e-6 M) was 15. The FP signal ([2]; compound 7.8125e-6 M) was 23, the FP signal ([2]; compound 1.5625e-5 M) was 37 and the FP signal ([2]; compound 3.125e-5 M) was 53. The FP signal ([2]; compound 6.25e-5 M) was 70, the FP signal ([2]; compound 0.000125 M) was 91 and the FP signal ([2]; compound 0.00025 M) was 104. The FP signal ([2]; compound 0.0005 M) was 116, the FP signal ([2]; compound 0.001 M) was 133 and the “Polarization in the absence of 14-3-3, background subtracted” value (from here on “Polarization in the absence”) ([2]; compound 7.8125e-7 M) was 1.367 and 0.6667 and -0.1333. The “Polarization in the absence” value ([2]; compound 1.5625e-6 M) was 0.1667 and 0.6667 and 0.3667, the “Polarization in the absence” value ([2]; compound 3.125e-6 M) was 0.06667 and -0.03333 and 0.6667 and the “Polarization in the absence” value ([2]; compound 6.25e-6 M) was 0.06667 and -0.2333 and -0.3333. The “Polarization in the absence” value ([2]; compound 1.25e-5 M) was 0.5667 and 0.6667 (2×), the “Polarization in the absence” value ([2]; compound 2.5e-5 M) was -0.03333 and 0.6667 and 0.8667 and the “Polarization in the absence” value ([2]; compound 5e-5 M) was 1.667 and 1.067 and 1.267. The “Polarization in the absence” value ([2]; compound 0.0001 M) was 1.667 and 1.167 and 2.267.
With `N=C(N)NCCCC1NC(=O)C(CCC(N)=O)NC(=O)C(CCCNC(=N)N)NC(=O)C2CCCN2Cc2ccccc2Sc2ccccc2CNC1=O` (stereo not drawn) [CY007502] the “F508del-CFTR surface expression signal (Fig5a)” value [1] was 344.243 and 408.371 and 366.875 and 405.395, the FP signal ([2]; compound 453 pM) was 1 and the FP signal ([2]; compound 906 pM) was 2. It also gave an FP signal ([2]; compound 1.81198e-9 M) of 2, an FP signal ([2]; compound 3.62396e-9 M) of 3 and an FP signal ([2]; compound 7.24792e-9 M) of 3. The FP signal ([2]; compound 1.44958e-8 M) was 1, the FP signal ([2]; compound 2.89917e-8 M) was 3 and the FP signal ([2]; compound 5.79834e-8 M) was 4. It also gave an FP signal ([2]; compound 1.15967e-7 M) of 3, an FP signal ([2]; compound 2.31934e-7 M) of 4 and an FP signal ([2]; compound 4.63867e-7 M) of 6. It also gave an FP signal ([2]; compound 9.27734e-7 M) of 3, an FP signal ([2]; compound 1.85547e-6 M) of 3 and an FP signal ([2]; compound 3.71094e-6 M) of 4. For the same compound, the FP signal ([2]; compound 7.42187e-6 M) was 6, the FP signal ([2]; compound 1.48437e-5 M) was 6 and the FP signal ([2]; compound 2.96875e-5 M) was 6. The FP signal ([2]; compound 5.9375e-5 M) was 26, the FP signal ([2]; compound 0.00011875 M) was 67 and the FP signal ([2]; compound 0.0002375 M) was 127. It also gave an FP signal ([2]; compound 0.000475 M) of 188 and an FP signal ([2]; compound 0.00095 M) of 241.
For `CC1NC(=O)C(CCCNC(=N)N)NC(=O)C2CCCN2Cc2cccc(c2)-c2ccccc2CNC(=O)C(CCCNC(=N)N)NC1=O` (stereo not drawn) [CY007476], the “F508del-CFTR trafficking towards the plasma membrane” value ([1]; BHK cells, 24 h, 10 μM compound) was “increase of F508del-CFTR trafficking towards the plasma membrane”, the “F508del-CFTR surface expression signal (Fig5a)” value [1] was 1288.45 and 1177.16 and 1241.43 and 1259.33 and the FP signal ([2]; compound 476.8 pM) was 1. For the same compound, the FP signal ([2]; compound 953.7 pM) was 3, the FP signal ([2]; compound 1.90735e-9 M) was 2 and the FP signal ([2]; compound 3.8147e-9 M) was 5. For the same compound, the FP signal ([2]; compound 7.6294e-9 M) was 5, the FP signal ([2]; compound 1.52588e-8 M) was 4 and the FP signal ([2]; compound 3.05176e-8 M) was 6. For the same compound, the FP signal ([2]; compound 6.10352e-8 M) was 6, the FP signal ([2]; compound 1.2207e-7 M) was 3 and the FP signal ([2]; compound 2.44141e-7 M) was 4. The FP signal ([2]; compound 4.88281e-7 M) was 4, the FP signal ([2]; compound 9.76563e-7 M) was 5 and the FP signal ([2]; compound 1.95313e-6 M) was 5. The FP signal ([2]; compound 3.90625e-6 M) was 6, the FP signal ([2]; compound 7.8125e-6 M) was 10 and the FP signal ([2]; compound 1.5625e-5 M) was 13. For the same compound, the FP signal ([2]; compound 3.125e-5 M) was 24, the FP signal ([2]; compound 6.25e-5 M) was 59 and the FP signal ([2]; compound 0.000125 M) was 124. The FP signal ([2]; compound 0.00025 M) was 186, the FP signal ([2]; compound 0.0005 M) was 230 and the FP signal ([2]; compound 0.001 M) was 257.
